In article PMC3639963, “A New Class of Small Molecule Inhibitor of BMP Signaling” (PLoS ONE, 2013):

Assays:
Experiment in all cases: Nanosyn kinase profiling
Format in all cases: biochemical
Conditions in all cases: read-out: Percentage inhibition; for inhibition at 0.1 µM: 0.1 µM inhibitor; for inhibition at 1 µM: 1 µM inhibitor
PLK1 = molecular target: T1, PLK1 (Homo sapiens, UniProt P53350)
T1 construct: purchased Nanosyn (enzymatic panel); SGC in-house recombinant human kinases (DSF panel); Invitrogen (ALK1-6)
Method: (§1) Percentage inhibition was determined for each kinase at both 0.1 µM and 1 µM inhibitor concentration (supplemental Table S2). […]. […]. When visualized on a kinase phylogenetic tree, these were primarily clustered within the receptor tyrosine kinases (TKs) as well as the calmodulin-dependent kinases (CAMKs) (Figure 2C).
(§2) Inhibitor selectivity profiling against 200 human kinases at 0.1 and 1 µM inhibitor concentration was performed by Nanosyn (www.nanosyn.com).

RON = molecular target: T2, RON (Homo sapiens, UniProt Q04912)
T2 construct: purchased Nanosyn (enzymatic panel); SGC in-house recombinant human kinases (DSF panel); Invitrogen (ALK1-6)
T2 sequence (Q04912 25-1400): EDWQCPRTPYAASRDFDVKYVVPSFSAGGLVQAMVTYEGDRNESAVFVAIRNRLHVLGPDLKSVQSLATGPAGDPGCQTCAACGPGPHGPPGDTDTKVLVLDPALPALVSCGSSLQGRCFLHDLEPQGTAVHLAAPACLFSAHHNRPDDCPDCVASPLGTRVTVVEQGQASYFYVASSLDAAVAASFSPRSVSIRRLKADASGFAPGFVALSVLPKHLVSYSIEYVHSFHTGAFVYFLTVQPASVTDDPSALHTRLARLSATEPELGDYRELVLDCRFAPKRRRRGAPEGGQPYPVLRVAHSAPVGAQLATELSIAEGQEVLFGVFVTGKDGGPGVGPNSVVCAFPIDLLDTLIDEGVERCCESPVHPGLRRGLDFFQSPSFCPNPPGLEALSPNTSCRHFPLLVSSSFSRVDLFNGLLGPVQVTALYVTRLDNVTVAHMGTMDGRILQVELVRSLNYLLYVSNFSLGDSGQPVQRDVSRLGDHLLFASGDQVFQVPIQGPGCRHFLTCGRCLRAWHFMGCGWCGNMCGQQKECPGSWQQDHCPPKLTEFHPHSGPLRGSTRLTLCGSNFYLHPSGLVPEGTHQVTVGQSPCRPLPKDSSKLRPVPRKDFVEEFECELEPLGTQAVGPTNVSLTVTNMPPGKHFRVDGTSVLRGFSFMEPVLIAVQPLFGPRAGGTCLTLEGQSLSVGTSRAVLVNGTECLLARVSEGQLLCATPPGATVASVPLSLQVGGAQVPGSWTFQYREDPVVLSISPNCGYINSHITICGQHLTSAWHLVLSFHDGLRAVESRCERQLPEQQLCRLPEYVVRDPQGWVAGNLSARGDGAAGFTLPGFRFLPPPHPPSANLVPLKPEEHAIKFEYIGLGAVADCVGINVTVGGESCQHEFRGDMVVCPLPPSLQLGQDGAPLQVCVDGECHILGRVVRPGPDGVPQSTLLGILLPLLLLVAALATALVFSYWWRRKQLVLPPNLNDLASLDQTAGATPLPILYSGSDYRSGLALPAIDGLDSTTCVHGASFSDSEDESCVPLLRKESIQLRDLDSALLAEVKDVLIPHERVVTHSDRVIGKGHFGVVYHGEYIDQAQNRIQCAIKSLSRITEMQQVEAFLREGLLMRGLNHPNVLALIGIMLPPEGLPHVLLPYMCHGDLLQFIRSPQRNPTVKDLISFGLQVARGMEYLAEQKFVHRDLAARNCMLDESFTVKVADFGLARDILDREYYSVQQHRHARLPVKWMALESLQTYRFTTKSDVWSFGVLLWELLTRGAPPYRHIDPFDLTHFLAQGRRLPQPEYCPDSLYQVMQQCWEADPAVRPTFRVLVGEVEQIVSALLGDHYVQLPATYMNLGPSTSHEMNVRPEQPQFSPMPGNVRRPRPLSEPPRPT
Method: as §1, §2

LYNB = molecular target: T3, LYNB (Homo sapiens, UniProt P07948)
T3 construct: purchased Nanosyn (enzymatic panel); SGC in-house recombinant human kinases (DSF panel); Invitrogen (ALK1-6)
T3 sequence (P07948 1-491 isoform P07948-2): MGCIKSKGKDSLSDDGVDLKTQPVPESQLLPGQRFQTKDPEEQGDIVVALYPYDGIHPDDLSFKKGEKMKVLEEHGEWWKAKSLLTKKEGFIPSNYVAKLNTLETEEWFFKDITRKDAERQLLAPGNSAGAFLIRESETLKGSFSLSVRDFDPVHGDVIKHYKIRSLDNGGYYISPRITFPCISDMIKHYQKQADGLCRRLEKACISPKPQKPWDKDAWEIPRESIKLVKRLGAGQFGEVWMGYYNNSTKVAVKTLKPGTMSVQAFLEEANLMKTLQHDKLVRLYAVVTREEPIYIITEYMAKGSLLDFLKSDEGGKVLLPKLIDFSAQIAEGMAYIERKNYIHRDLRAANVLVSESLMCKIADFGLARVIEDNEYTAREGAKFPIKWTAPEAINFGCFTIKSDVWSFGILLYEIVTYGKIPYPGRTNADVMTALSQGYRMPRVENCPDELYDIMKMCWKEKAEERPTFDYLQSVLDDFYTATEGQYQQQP
Method: as §1, §2

DAPK1 = molecular target: T4, DAPK1 (Homo sapiens, UniProt P53355)
T4 construct: purchased Nanosyn (enzymatic panel); SGC in-house recombinant human kinases (DSF panel); Invitrogen (ALK1-6)
T4 sequence (P53355 whole entry): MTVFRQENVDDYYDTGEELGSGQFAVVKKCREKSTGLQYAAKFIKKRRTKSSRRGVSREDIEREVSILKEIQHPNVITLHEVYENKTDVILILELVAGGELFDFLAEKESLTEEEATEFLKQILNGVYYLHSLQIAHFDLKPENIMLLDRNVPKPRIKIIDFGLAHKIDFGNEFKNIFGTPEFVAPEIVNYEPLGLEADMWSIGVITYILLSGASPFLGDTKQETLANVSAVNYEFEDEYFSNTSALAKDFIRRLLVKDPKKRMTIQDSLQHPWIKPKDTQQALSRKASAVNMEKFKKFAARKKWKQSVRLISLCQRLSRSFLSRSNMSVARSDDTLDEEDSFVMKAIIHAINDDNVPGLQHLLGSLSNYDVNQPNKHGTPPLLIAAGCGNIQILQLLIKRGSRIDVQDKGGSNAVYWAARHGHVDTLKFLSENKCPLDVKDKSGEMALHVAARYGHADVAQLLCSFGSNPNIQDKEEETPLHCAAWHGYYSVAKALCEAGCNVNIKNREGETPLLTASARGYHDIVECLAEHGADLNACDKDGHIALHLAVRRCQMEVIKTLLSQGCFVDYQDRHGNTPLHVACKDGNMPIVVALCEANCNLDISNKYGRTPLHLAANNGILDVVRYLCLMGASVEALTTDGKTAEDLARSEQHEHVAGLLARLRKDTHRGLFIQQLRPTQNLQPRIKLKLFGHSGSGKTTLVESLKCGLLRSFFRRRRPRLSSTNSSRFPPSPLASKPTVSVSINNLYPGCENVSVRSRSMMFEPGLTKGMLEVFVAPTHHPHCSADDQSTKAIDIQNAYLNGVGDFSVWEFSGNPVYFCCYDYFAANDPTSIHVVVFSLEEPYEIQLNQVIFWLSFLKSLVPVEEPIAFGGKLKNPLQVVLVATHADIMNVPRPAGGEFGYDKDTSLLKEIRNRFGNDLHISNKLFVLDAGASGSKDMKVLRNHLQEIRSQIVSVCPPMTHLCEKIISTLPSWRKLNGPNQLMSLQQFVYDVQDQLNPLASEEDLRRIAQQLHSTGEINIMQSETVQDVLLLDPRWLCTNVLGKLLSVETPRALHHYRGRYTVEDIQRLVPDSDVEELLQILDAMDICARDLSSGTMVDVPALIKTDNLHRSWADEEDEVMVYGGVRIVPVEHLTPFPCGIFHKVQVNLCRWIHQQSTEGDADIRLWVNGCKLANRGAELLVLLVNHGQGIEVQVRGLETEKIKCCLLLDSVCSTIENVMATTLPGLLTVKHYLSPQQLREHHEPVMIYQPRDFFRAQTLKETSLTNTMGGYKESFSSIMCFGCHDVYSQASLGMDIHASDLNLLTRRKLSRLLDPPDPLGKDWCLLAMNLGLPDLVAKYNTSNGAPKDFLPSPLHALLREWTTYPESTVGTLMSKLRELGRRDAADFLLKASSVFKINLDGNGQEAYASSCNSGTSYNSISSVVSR
Method: as §1, §2

CAMK2δ = molecular target: T5, CAMK2δ (Homo sapiens, UniProt Q13557)
T5 construct: purchased Nanosyn (enzymatic panel); SGC in-house recombinant human kinases (DSF panel); Invitrogen (ALK1-6)
Method: as §1, §2

PKCβ1 = molecular target: T6, PKCβ1 (Homo sapiens, UniProt P05771)
T6 construct: purchased Nanosyn (enzymatic panel); SGC in-house recombinant human kinases (DSF panel); Invitrogen (ALK1-6)
Method: as §1, §2

DCAMKL2 = molecular target: T7, DCAMKL2 (Homo sapiens, UniProt Q8N568)
T7 construct: purchased Nanosyn (enzymatic panel); SGC in-house recombinant human kinases (DSF panel); Invitrogen (ALK1-6)
T7 sequence (Q8N568 1-766): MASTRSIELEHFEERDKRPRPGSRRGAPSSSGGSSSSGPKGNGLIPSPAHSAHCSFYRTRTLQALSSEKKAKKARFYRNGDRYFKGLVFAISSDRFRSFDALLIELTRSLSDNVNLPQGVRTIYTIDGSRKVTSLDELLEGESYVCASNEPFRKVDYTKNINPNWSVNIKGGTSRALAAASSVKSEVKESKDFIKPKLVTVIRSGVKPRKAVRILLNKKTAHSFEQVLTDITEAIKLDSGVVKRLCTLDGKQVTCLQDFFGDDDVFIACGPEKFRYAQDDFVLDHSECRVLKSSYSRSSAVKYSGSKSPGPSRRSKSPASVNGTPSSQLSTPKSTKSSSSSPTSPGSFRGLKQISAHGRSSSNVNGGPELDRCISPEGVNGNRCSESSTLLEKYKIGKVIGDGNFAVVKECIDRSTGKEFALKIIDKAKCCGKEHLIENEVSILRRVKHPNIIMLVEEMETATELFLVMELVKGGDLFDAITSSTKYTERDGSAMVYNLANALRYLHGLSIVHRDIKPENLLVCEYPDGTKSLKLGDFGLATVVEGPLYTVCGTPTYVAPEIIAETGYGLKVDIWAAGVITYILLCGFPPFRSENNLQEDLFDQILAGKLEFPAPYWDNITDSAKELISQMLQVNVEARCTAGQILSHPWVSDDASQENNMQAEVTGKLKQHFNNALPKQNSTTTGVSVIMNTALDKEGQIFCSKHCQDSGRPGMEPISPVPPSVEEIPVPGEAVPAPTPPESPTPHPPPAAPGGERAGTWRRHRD
Method: as §1, §2

MRCKα = molecular target: T8, MRCKα (Homo sapiens, UniProt Q5VT25)
T8 construct: purchased Nanosyn (enzymatic panel); SGC in-house recombinant human kinases (DSF panel); Invitrogen (ALK1-6)
T8 sequence (Q5VT25 whole entry): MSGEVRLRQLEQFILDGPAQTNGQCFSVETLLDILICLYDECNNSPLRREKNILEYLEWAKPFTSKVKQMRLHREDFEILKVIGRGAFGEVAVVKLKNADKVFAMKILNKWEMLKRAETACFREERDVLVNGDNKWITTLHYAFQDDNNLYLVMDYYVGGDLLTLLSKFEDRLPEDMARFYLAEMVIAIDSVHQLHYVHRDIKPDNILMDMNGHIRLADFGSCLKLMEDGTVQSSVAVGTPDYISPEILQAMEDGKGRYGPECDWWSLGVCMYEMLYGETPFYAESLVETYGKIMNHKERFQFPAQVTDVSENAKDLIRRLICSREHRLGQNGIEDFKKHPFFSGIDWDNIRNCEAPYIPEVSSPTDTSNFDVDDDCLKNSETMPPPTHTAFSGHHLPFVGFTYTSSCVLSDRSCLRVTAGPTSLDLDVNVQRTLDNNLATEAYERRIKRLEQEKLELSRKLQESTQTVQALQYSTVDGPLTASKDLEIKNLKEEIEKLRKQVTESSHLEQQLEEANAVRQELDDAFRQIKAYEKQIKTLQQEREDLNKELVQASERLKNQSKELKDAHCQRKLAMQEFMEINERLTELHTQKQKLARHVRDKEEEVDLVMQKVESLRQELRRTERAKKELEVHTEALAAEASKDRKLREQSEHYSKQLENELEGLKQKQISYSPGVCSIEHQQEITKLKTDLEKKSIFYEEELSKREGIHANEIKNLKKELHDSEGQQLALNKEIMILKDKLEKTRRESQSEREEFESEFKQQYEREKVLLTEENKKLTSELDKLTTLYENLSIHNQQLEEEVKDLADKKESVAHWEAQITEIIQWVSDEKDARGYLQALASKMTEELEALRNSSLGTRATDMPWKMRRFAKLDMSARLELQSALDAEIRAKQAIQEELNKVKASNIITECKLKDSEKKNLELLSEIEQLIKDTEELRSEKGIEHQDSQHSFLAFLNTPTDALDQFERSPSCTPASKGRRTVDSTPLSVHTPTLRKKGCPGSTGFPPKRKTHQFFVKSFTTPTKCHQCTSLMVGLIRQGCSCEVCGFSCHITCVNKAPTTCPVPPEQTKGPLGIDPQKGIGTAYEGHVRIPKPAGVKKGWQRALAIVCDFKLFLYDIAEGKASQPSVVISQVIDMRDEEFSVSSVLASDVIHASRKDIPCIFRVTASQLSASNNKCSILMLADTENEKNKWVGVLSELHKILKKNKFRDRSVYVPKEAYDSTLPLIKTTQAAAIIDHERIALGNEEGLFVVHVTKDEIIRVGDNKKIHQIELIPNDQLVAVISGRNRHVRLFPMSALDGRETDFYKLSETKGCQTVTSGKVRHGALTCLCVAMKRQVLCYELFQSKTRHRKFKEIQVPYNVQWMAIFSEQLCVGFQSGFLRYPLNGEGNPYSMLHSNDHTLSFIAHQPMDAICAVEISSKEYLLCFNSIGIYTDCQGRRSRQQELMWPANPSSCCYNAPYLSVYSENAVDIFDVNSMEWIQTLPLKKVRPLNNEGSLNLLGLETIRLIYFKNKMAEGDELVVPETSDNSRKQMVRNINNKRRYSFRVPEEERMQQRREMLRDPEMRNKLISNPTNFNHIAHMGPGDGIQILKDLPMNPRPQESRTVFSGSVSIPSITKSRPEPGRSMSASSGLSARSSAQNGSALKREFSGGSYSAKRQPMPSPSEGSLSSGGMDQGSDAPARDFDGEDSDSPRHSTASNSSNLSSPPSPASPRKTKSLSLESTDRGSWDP
Method: as §1, §2

FGR = molecular target: T9, FGR (Homo sapiens, UniProt P09769)
T9 construct: purchased Nanosyn (enzymatic panel); SGC in-house recombinant human kinases (DSF panel); Invitrogen (ALK1-6)
Method: as §1, §2

BTK = molecular target: T10, BTK (Homo sapiens, UniProt Q06187)
T10 construct: purchased Nanosyn (enzymatic panel); SGC in-house recombinant human kinases (DSF panel); Invitrogen (ALK1-6)
Method: as §1, §2

PKCη = molecular target: T11, PKCη (Homo sapiens, UniProt P24723)
T11 construct: purchased Nanosyn (enzymatic panel); SGC in-house recombinant human kinases (DSF panel); Invitrogen (ALK1-6)
Method: as §1, §2

PKCγ = molecular target: T12, PKCγ (Homo sapiens, UniProt P05129)
T12 construct: purchased Nanosyn (enzymatic panel); SGC in-house recombinant human kinases (DSF panel); Invitrogen (ALK1-6)
Method: as §1, §2

NEK9 = molecular target: T13, NEK9 (Homo sapiens, UniProt Q8TD19)
T13 construct: purchased Nanosyn (enzymatic panel); SGC in-house recombinant human kinases (DSF panel); Invitrogen (ALK1-6)
T13 sequence (Q8TD19 1-979): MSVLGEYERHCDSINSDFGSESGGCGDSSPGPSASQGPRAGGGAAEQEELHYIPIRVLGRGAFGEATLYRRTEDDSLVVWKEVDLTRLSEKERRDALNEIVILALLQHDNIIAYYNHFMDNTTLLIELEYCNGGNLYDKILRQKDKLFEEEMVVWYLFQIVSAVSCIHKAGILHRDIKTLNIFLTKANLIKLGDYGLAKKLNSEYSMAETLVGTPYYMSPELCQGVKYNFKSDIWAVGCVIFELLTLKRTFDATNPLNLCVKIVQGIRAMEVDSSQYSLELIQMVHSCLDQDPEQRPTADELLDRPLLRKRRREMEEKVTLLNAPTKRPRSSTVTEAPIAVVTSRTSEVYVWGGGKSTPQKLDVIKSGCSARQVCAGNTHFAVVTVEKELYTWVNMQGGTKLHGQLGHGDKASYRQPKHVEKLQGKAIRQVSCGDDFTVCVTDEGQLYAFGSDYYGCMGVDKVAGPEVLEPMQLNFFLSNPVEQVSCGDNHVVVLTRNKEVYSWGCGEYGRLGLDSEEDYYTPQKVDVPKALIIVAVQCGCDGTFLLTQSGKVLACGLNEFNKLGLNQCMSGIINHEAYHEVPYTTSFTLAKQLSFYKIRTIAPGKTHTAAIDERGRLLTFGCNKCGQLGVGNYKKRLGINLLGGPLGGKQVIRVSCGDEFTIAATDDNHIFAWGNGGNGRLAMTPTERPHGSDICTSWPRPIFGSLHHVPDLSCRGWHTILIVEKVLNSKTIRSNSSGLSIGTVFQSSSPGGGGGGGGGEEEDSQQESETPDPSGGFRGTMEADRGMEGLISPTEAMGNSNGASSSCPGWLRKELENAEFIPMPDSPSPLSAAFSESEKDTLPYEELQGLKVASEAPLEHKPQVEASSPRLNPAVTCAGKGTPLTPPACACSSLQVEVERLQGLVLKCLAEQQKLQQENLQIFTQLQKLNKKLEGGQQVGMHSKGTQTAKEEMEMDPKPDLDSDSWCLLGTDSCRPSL
Method: as §1, §2

PI4-K-β = molecular target: T14, PI4-K-β (Homo sapiens, UniProt Q9UBF8)
T14 construct: purchased Nanosyn (enzymatic panel); SGC in-house recombinant human kinases (DSF panel); Invitrogen (ALK1-6)
Method: as §1, §2

PDGFRβ = molecular target: T15, PDGFRβ (Homo sapiens, UniProt P09619)
T15 construct: purchased Nanosyn (enzymatic panel); SGC in-house recombinant human kinases (DSF panel); Invitrogen (ALK1-6)
Method: as §1, §2

SMILES | inhibition at 0.1 µM (PLK1) [%] | inhibition at 1 µM (PLK1) [%] | inhibition at 0.1 µM (RON) [%] | inhibition at 1 µM (RON) [%] | inhibition at 0.1 µM (LYNB) [%] | inhibition at 1 µM (LYNB) [%] | inhibition at 0.1 µM (DAPK1) [%] | inhibition at 1 µM (DAPK1) [%] | inhibition at 0.1 µM (CAMK2δ) [%] | inhibition at 1 µM (CAMK2δ) [%] | inhibition at 0.1 µM (PKCβ1) [%] | inhibition at 1 µM (PKCβ1) [%] | inhibition at 0.1 µM (DCAMKL2) [%] | inhibition at 1 µM (DCAMKL2) [%] | inhibition at 0.1 µM (MRCKα) [%] | inhibition at 1 µM (MRCKα) [%] | inhibition at 0.1 µM (FGR) [%] | inhibition at 1 µM (FGR) [%] | inhibition at 0.1 µM (BTK) [%] | inhibition at 1 µM (BTK) [%] | also measured
COc1cc(-c2cc(-c3cccc(O)c3)cnc2N)cc(OC)c1OC [K02288, 3-[6-amino-5-(3,4,5-trimethoxy-phenyl)-pyridin-3-yl]-phenol] | -2 | -2 | 3 | -1 | 6 | 43 | -1 | -1 | -1 | 1.4 | -1 | 0.7 | -2 | 2.3 | 2 | 6.9 | 6.7 | 37 | 0.5 | 6.6 | inhibition at 0.1 µM (PKCη): -2%; inhibition at 1 µM (PKCη): -4%; inhibition at 0.1 µM (PKCγ): -4%; inhibition at 1 µM (PKCγ): -1%; inhibition at 0.1 µM (NEK9): 5.3%; inhibition at 1 µM (NEK9): -2%; inhibition at 0.1 µM (PI4-K-β): 0.8%; inhibition at 1 µM (PI4-K-β): -4%; inhibition at 0.1 µM (PDGFRβ): 7.7%; inhibition at 1 µM (PDGFRβ): 43%
c1ccc2c(-c3cnn4cc(-c5ccc(N6CCNCC6)cc5)cnc34)ccnc2c1 [LDN-193189] | 0.8 | 1.3 | -2 | 12 | 7.4 | 34 | 1.5 | 0.4 | 3.1 | 8.7 | -2 | 0.2 | 0.8 | 3.4 | 0.8 | 6.8 | 13 | 53 | 0.5 | 1.8 | inhibition at 0.1 µM (PKCη): 2.2%; inhibition at 1 µM (PKCη): -2%; inhibition at 0.1 µM (PKCγ): 2.1%; inhibition at 1 µM (PKCγ): 4.1%; inhibition at 0.1 µM (NEK9): 1.9%; inhibition at 1 µM (NEK9): 6.6%; inhibition at 0.1 µM (PI4-K-β): 3.5%; inhibition at 1 µM (PI4-K-β): 5.8%; inhibition at 0.1 µM (PDGFRβ): 39%; inhibition at 1 µM (PDGFRβ): 75%
